Data published in ChEMBL document CHEMBL1127221, “The design of a dipeptide library for screening at peptide receptor sites” (Bioorg Med Chem Lett, 1993).
pKi: −log10 of the molar value. Each block holds one compound with its values, some of them ahead of it.

Experiments:
[1] = molecular target: T1, Gastrin/cholecystokinin type B receptor (Homo sapiens, UniProt P32239); experiment: Inhibitory activity against Cholecystokinin type B receptor
T1 sequence (P32239 whole entry): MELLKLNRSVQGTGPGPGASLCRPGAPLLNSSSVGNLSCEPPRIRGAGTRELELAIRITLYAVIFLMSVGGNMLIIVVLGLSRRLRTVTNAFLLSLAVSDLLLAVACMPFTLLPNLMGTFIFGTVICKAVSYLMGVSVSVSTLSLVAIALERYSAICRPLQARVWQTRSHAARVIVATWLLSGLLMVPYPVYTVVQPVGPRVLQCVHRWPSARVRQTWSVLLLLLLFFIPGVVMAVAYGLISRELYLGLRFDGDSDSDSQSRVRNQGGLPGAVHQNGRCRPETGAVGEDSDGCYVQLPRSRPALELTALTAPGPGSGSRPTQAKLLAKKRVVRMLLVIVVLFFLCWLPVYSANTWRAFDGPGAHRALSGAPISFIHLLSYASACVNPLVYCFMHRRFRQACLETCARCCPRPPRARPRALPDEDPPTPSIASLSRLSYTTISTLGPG

[2] = molecular target: Angiotensin-converting enzyme (Homo sapiens, UniProt P12821); experiment: Inhibitory activity against Angiotensin I converting enzyme
Angiotensin-converting enzyme, sequence (P12821 whole entry): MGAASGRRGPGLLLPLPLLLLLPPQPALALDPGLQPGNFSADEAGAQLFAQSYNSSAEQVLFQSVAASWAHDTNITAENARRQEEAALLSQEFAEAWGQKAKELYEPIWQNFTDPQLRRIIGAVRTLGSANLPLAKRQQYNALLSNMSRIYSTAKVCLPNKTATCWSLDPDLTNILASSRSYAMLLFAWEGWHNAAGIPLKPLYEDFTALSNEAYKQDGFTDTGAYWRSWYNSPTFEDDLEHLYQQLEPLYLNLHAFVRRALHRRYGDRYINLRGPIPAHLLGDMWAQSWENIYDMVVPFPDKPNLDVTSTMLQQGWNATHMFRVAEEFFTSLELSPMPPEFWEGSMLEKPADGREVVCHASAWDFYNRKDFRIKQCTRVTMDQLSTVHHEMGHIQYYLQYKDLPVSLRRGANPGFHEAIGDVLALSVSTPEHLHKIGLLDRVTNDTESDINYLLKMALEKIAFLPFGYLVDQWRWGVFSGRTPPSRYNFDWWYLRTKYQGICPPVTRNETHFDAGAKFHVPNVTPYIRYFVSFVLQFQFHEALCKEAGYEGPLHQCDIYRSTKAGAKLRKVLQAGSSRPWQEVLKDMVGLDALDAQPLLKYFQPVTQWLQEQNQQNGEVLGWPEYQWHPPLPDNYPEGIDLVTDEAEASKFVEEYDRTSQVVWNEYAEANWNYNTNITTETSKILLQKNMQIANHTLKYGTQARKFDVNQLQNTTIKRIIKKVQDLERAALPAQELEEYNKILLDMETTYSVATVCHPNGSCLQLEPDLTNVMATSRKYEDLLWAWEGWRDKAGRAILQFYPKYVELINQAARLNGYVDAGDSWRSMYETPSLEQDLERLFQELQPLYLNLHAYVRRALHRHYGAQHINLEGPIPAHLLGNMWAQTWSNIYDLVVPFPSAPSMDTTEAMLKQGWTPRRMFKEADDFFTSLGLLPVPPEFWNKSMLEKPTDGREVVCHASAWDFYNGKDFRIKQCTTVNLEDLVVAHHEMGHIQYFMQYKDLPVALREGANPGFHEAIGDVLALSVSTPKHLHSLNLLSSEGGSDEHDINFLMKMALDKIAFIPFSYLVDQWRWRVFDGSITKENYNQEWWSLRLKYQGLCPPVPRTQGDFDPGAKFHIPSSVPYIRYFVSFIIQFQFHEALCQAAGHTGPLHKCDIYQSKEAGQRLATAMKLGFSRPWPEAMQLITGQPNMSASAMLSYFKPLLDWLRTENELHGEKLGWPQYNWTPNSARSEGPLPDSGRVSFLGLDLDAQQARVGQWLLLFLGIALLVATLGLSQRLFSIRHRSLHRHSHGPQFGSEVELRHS

[3] = molecular target: T2, Cholecystokinin receptor type A (Homo sapiens, UniProt P32238); experiment: Inhibitory activity against CCK-A receptor
T2 sequence (P32238 whole entry): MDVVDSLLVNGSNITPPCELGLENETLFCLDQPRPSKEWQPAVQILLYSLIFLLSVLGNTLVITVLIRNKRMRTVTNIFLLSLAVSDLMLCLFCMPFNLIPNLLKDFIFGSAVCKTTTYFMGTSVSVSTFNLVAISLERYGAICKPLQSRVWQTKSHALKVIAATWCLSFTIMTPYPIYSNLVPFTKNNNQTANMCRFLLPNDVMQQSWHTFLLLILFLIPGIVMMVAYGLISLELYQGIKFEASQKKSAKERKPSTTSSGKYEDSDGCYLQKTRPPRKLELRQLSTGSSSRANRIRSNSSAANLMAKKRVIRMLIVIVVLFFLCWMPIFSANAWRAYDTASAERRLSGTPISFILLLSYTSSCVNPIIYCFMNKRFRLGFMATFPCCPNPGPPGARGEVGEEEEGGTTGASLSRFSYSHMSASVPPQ

pKi [1]: 8.77
Compound: C[C@@](N)(Cc1cn(C(=O)OC2C3CC4CC(C3)CC2C4)c2ccccc12)C(=O)NC[C@H](NC(=O)CCC(=O)O)c1ccccc1 (stereo partly drawn)

pKi [2]: 7.00
Compound: H-EWPRPQIPP-OH

pKi [3]: 8.52
Compound: C[C@@](N)(Cc1cn(C(=O)OC2C3CC4CC(C3)CC2C4)c2ccccc12)C(=O)N[C@H](CC(=O)O)Cc1ccccc1 (stereo partly drawn)
